# Measured values reported in patent US8318950B2, “N-acyl amino acid derivatives, a method for the preparation thereof, a pharmaceutical composition and use thereof as anti-allergic, anti-inflammatory and hypolipidemic agents” (Otkrytoe Aktsionernoe Obschestvo-Otechestvennye Lekarstva, priority 2005, dated 2012).
# Tests used:
# [1] = test system: hypercholesterolemia in Wistar rats; assay: Model of hypercholesterolemia in rats (oral cholesterol loading); assay type: in vivo, rat
# Protocol: The study was carried out on male Wistar rats weighing 200±20 g. Hyperlipidemia was induced by oral administration of cholesterol loading, oily cholesterol suspension:
# olive oil (Acorsa, Spain)—5 ml/kg weigh of animals;
# cholesterol (Sigma, USA)—1 g/kg weight;
# sodium cholate (Sigma, USA)—100 mg/kg weight.
# As a reference preparation, the preparation from the group of statines “Mevacor” (Lovastatine) manufactured by the firm Merck Sharp & Dohn was used at dose 40 mg/kg. Cholesterol suspension was administered daily in the morning for 10 days. The compounds tested (at dose 500 μg/kg) and the reference preparation (at dose 40 mg/kg) were administered to the animals togester with cholesterol suspension for 10 days. All the animals received a standard briquetted forage.
# The animals were divided into the following groups:
# “Control”—intact animals (n=5);
# “Cholesterol”—rats that orally received cholesterol loading (n=10);
# “Lovastatine”—rats that orally received cholesterol loading and Lovastatine (n=10);
# “Compound IV”—rats that orally received cholesterol loading and the tested compound IV (n=10).
# Blood was sampled at days 5, 8 and 10 of the experiment.
# Statistical processing of the hypolipidemic action data of the tested substances was carried out with regard to the “Cholesterol” group (Table 13).
# Experimental groups included:
# 1) “Cholesterol”—rats orally administered with oily cholesterol suspension for 10 days;
# 2) “Compound IV”—rats orally administered with oily cholesterol suspension and the tested compound N;
# 3) “Compound IV—1Na”—rats orally administered with oily cholesterol suspension and the tested mono-sodium salt of compound N;
# 4) “Compound IV—2Na”—rats orally administered with oily cholesterol suspension and the tested di-sodium salt of compound N;
# 5) “Compound V—1Na”—rats orally administered with oily cholesterol suspension and the tested mono-sodium salt of the compound V;
# 6) “Compound III—1Na”—rats orally administered with oily cholesterol suspension and the tested mono-sodium salt of the compound III;
# 7) “Compound II—1Na”—rats orally administered with oily cholesterol suspension and the tested mono-sodium salt of the compound II;
# 8) “Sim”—rats orally administered with oily cholesterol suspension and Simvastatine;
# 9) control—intact rats before beginning the test.
# At day 10 of the test blood samples were taken following decapitation of the animals. The animals fasted for 12 hours prior to decapitation.
# Blood serum total cholesterol, triglycerides and high density lipoprotein cholesterol (HDLC) were measured. Low and very low density lipoprotein cholesterol was calculated by the difference between total cholesterol and HDL cholesterol.
# Blood serum total cholesterol and triglycerides were determined using the enzymatic methods.
# Cholesterol level in high density lipoproteins (α-LP) was determined using the precipitation method of LDL and VLDL with phosphotungstic acid and magnesium ions.
# Data in the tables are presented as a mean value±standard error. Significance of differences between the groups “cholesterol” and “preparation.” was assessed by the two-sampled Student's t-test.
# [2] = test system: endogenous hypercholesterolemia in guinea pigs; assay: Model of endogenous hypercholesterolemia in guinea pigs (fat loading); assay type: in vivo, guinea pig; set-up: Serum total cholesterol / Serum total triglyceride levels: unit not given here; conditions: for Serum total cholesterol / Serum total triglyceride levels: fat loading + compound 500 μg/kg orally
# Protocol: The study was carried out on male guinea pigs (Aguti line) weighing 304±25 g. The experiment lasted 31 days. The control group included 6 guinea pigs (intact animals). The compounds studied were administered from day 1 of the experiment (from day 1 of administering fat loading).
# The animals of experimental groups received orally for 31 days a compound studied and fat loading. The compound studied at doses indicated below was administered in the form of an aqueous solution (0.5 ml per an animal); fat loading (a mixture of porcine fat and preliminary heated corn oil at 4:1 ratio by volume, at the rate of 5 ml/kg weight 0.5 h post administering the substance studied.
# 1) “control”—intact animals;
# 2) “fat”—animals that received fat loading only
# 3) “compound IV”—animals that received fat loading+compound IV at dose 500 μg/kg body weight;
# 4) “compound V”—animals that received fat loading+compound V at dose 500 μg/kg body weight.
# Statistical processing was carried out using a mono-factorial analysis of variance.
# [3] = test system: antigen-induced bronchial spasm in sensitized guinea pigs; assay: Systemic anaphylaxis in vivo: antigen-induced bronchial spasm in ovalbumin-sensitized conscious guinea pigs; set-up: species or system guinea pig
# Description: A bronchial spasm model in conscious guinea pigs actively sensitized by exposure to aerosol ovalbumin as an antigen was used [Kovaleva V. L. “Metodicheskiye ukazaniya po izucheniyu bronkholiticheskikh I protivovospalitel'nykh sredstv.//Rukovodstvo po experimental'nomy (doklinicheskomu) izucheniyu novykh pharmacologicheskikh veshchestv, Moscow. 2000. pp. 242-250].
# Guinea pigs were sensitized by ovalbumin according to the method of Andersson [Anderson P. Antigen-induced bronchial anaphylaxis in actively sensitized guinea-pigs.//Allergy. 1980. Vol. 35. P. 63-71] and in 1-2 months following sensitization, bronchial spasm was induced by aerosol administration of albumin booster dose (3 mg/kg in 1 ml normal saline).
# In test groups, guinea pigs were for three days administered with tested compounds at doses 10 μg/kg, 50 μg/kg, and 150 μg/kg, using a probe. In the other group of experiments, the tested compounds at dose 50 μg/kg (in 1 ml normal saline) were administered nasally (using a nebulizer) also once daily for three days. The control group was administered with normal saline. One hour post the last administration of substances, ovalbumin was administered by inhalation using a nebulizer, and intensity and duration (in seconds) of bronchial spasm reaction in animals was assessed.
# [4] = day 5 of the experiment (Table 15)
# [5] = day 8 of the experiment (Table 16)
# [6] = day 10 of the experiment (Table 17)
# [7] = dose 500 μg/kg, vs Cholesterol group
# [8] = oral 10 days with cholesterol loading, tested compound 500 μg/kg, reference 40 mg/kg (Table 13)
# [9] = day 31, blood serum, 500 μg/kg orally (Table 24)
# [10] = day 31, blood serum, 500 μg/kg orally (Table 25)
# [11] = by inhalation, 50 μg/kg, once daily for three days
# [12] = intragastric, 10 μg/kg, three days
# [13] = intragastric, 150 μg/kg, three days
compound,measurement,setting,value
"O=C(O)CCCC(=O)N[C@@H](Cc1c[nH]cn1)C(=O)O [Compound IV, N^α-glutaryl-L-histidine]","Total cholesterol, HDL",[1]; [4],35.8 ± 1.2 mg/100 ml
same,"Total cholesterol, LDL + VLDL",[1]; [4],48.5 ± 4.5 mg/100 ml
same,"Triglycerides, Serum",[1]; [4],120.6 ± 8.9 mg/100 ml
same,"Total cholesterol, Serum","[1]; day 5 of the experiment (Table 15), oral with oily cholesterol suspension",84.2 ± 3.9 mg/100 ml
same,"Total cholesterol, HDL",[1]; [5],35.9 ± 1.2 mg/100 ml
same,"Total cholesterol, LDL + VLDL",[1]; [5],67.3 ± 8.7 mg/100 ml
same,"Total cholesterol, Serum",[1]; [5],103.3 ± 8.1 mg/100 ml
same,"Triglycerides, Serum",[1]; [5],154.2 ± 11.4 mg/100 ml
same,"Total cholesterol, HDL",[1]; [6],36.5 ± 0.9 mg/100 ml
same,"Total cholesterol, LDL + VLDL",[1]; [6],58.7 ± 5.3 mg/100 ml
same,"Total cholesterol, Serum",[1]; [6],95.2 ± 5.4 mg/100 ml
same,"Triglycerides, Serum",[1]; [6],143.3 ± 8.9 mg/100 ml
same,lowering LDL cholesterol,[1]; [7],29.8%
same,lowering hepatic cholesterol,[1]; [7],22.7%
same,lowering hepatic triglycerides,[1]; [7],19%
same,lowering serum total cholesterol,[1]; [7],19.5%
same,"Total cholesterol, CHDL",[1]; [8],50.5 ± 1.3 mg/100 ml
same,"Total cholesterol, CLLD + CLVLD",[1]; [8],46.1 ± 0.9 mg/100 ml
same,"Total cholesterol, Liver",[1]; [8],2.78 ± 0.28 mg/g of tissue
same,"Total cholesterol, Serum",[1]; [8],96.6 ± 5.7 mg/100 ml
same,"Triglycerids, Liver",[1]; [8],5.53 ± 0.19 mg/g of tissue
same,"Triglycerids, Serum",[1]; [8],95.1 ± 7.9 mg/100 ml
same,Serum total cholesterol,[2]; Day 28,55.5 ± 6.3
same,Serum total triglyceride levels,[2]; Day 28,66.8 ± 6.7
same,Serum total cholesterol,[2]; Day 31,49.2 ± 3.9
same,Serum total triglyceride levels,[2]; Day 31,69.0 ± 13.4
same,lowered LDL cholesterol,[2]; by day 31 of the experiment,37.7%
same,lowered total cholesterol level,[2]; by day 31 of the experiment,33.9%
same,"Cholesterol, LDL",[2]; [9],42.1 ± 3.5 mg/100 ml
same,"Cholesterol, Total",[2]; [9],49.2 ± 3.9 mg/100 ml
same,"Cholesterol, VLDL",[2]; [9],3 ± 0.71 mg/100 ml
same,"Triglycerides, LDL",[2]; [10],29.6 ± 2.4 mg/100 ml
same,"Triglycerides, Total",[2]; [10],69 ± 13.4 mg/100 ml
same,"Triglycerides, VLDL",[2]; [10],33.2 ± 12.3 mg/100 ml
same,Duration of acute phase,[3]; [11],0 s
same,Duration of sub-acute phase,[3]; [11],400 ± 25 s
same,Duration of acute phase,[3]; [12],68.0 ± 54.7 s
same,Total reaction time,[3]; [12],428.0 ± 75.0 s
same,Duration of acute phase,[3]; [13],72.0 ± 42.1 s
same,Total reaction time,[3]; [13],337.0 ± 78.5 s
